Measurements as given in patent US7816328B2, “Substituted fused heterocyclic C-glycosides” (Janssen Pharmaceutica NV, priority 2003, dated 2010).

Legend:
[1] = molecular target: T1, human SGLT2 (Homo sapiens, UniProt P31639); assay: Cell-based assay for sodium-dependent glucose transport (14C-AMG uptake), CHO-K1 cells stably expressing human SGLT2; settings: Na-dependent 14C-AMG uptake; for IC50: read-out: CHOK-SGLT2 IC50; for inhibition at 10 µM: read-out: CHOK-SGLT2 % Inh at 10 uM
T1 construct: expressed in transfected cells; host or cells: CHO-K1
T1 sequence (P31639 1-672): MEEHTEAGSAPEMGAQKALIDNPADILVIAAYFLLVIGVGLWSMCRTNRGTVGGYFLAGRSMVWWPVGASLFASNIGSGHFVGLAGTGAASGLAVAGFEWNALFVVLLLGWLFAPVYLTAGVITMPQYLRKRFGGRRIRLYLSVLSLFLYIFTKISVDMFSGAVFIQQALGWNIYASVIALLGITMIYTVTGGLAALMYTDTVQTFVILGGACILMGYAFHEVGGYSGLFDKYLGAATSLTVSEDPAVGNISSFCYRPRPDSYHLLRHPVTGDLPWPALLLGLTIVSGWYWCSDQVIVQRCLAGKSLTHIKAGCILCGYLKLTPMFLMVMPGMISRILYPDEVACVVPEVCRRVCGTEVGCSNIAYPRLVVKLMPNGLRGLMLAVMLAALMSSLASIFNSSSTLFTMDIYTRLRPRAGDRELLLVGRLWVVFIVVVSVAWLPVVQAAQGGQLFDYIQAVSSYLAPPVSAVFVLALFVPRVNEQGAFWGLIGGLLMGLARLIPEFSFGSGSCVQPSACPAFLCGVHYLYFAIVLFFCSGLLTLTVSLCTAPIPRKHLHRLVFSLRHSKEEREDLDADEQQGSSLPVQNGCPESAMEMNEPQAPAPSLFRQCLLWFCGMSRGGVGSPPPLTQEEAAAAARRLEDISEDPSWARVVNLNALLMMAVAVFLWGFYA
Protocol: (§1) Cloning of the human SGLT1 and human SGLT2 cDNAs and construction of the mammalian expression vector: The human SGLT1 cDNA (Genbank M24847) was cloned from human small intestine. Human SGLT2 cDNA (Genbank M95549) was cloned from human kidney. Both full cDNAs were subcloned into pcDNA and sequenced to verify the integrity of the construct.
(§2) Generation of CHO-K1 cells stably expressing human SGLT1 or human SGLT2: Transfection of CHO-K1 cells was performed using DMRIE-C reagent (Life Technologies, Gaithersburg, Md.). Transfectants were then selected in the presence of the antibiotic G418 (Gibco-BRL, Grand Island, N.Y.) at 400 μg/ml. Individual clones were then characterized using the functional assay described below.
(§3) Cell-based assay for sodium-dependent glucose transport: Cell lines stably expressing human SGLT1 or SGLT2 were then used for functional analysis of Na+-dependent glucose uptake. Briefly, cells were plated at a density of 65,000 cells per well in a 96-well plate and allowed to grow for 48 hours. Cells were subsequently washed one time with Assay Buffer (50 mM HEPES pH 7.4, 20 mM Tris, 5 mM KCl, 1 mM MgCl2, 1 mM CaCl2 and 137 mM NaCl) and treated with compound in the absence or presence of NaCl for 15 minutes. Cells were then labeled with ^14C-α-methylglucopyranoside (AMG, Sigma, St. Louis, Mo.) a non-metabolizable glucose analog specific for sodium-dependent glucose transporters as previously described (Peng, H. and Lever J. E. Post-transcriptional regulation of Na^+/glucose cotransporter (SGLT1) gene expression in LLC-PK1 cells. J Biol Chem 1995; 270:20536-20542). After 2 hours the labelled cells were washed three times with ice-cold PBS. After aspiration, cells were solubilized using Microscint 20 (Packard, Meriden, Conn.) and Na-dependent ^14C-AMG uptake was quantified by measuring radioactivity.
(§4) Plates were counted in a TopCount (Packard, Meriden, Conn.). Results are reported as the % inhibition or IC50 value from a representative experiment. Variability for the functional assay was typically within 20%.

[2] = molecular target: T2, human SGLT1 (Homo sapiens, UniProt P13866); assay: Cell-based assay for sodium-dependent glucose transport (14C-AMG uptake), CHO-K1 cells stably expressing human SGLT1; settings: Na-dependent 14C-AMG uptake
T2 construct: expressed in transfected cells; host or cells: CHO-K1
T2 sequence (P13866 1-664): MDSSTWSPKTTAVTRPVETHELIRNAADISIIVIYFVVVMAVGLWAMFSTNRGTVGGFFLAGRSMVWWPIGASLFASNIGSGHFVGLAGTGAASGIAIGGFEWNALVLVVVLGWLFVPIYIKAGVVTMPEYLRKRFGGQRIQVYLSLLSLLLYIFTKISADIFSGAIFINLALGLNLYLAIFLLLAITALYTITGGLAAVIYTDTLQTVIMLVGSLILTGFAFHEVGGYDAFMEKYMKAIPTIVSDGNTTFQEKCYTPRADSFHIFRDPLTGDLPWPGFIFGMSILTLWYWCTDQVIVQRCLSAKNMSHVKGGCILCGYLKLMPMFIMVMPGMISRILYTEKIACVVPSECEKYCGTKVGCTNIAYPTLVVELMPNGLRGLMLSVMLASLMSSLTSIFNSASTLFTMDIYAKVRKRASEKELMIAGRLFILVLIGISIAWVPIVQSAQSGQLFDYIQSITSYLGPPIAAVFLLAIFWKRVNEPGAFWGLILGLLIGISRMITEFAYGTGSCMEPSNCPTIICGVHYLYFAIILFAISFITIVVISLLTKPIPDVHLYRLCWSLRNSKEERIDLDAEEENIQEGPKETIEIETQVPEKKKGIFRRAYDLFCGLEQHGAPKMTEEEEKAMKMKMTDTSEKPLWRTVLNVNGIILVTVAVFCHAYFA
Protocol: as §1, §2, §3, §4

| IC50 [1] [nM] | CHOK-SGLT1 IC50 (uM) [2] | inhibition at 10 µM [1] [%] | Compound |
| --- | --- | --- | --- |
| 1390 ± 67 | inactive | – | COc1ccc(Cc2c[nH]c3ccc([C@@H]4O[C@H](CO)[C@@H](O)[C@H](O)[C@H]4O)cc23)cc1 [Example 2, 5-(β-D-Glucopyranosyl)-3-(4-methoxybenzyl)-1H-indole] |
| 132 ± 24 | inactive | – | CCc1ccc(Cc2c[nH]c3ccc([C@@H]4O[C@H](CO)[C@@H](O)[C@H](O)[C@H]4O)cc23)cc1 [Example 1, 3-(4-Ethylbenzyl)-5-(β-D-glucopyranosyl)-1H-indole] |
| – | inactive | 60 | COc1ccc(CCc2c[nH]c3ccc([C@@H]4O[C@H](CO)[C@@H](O)[C@H](O)[C@H]4O)cc23)cc1 [Example 3, 5-(β-D-Glucopyranosyl)-3-[2-(4-methoxyphenyl)-ethyl]-1H-indole] |
| – | inactive | 12 | CCc1ccc(Cc2c[nH]c3cccc([C@@H]4O[C@H](CO)[C@@H](O)[C@H](O)[C@H]4O)c23)cc1 [Example 4, 3-(4-Ethylbenzyl)-4-(β-D-glucopyranosyl)-1H-indole] |
